Consider 20 compounds from patent US8461328B2, “Tricyclic heterocyclic compounds, compositions and methods of use thereof” (Genentech, Inc., priority 2010, dated 2013).

Common to all, as to assay type: biochemical
One assay addresses T1, JAK3 (Homo sapiens, UniProt P52333).
T1 construct: made in house; host or cells: SF9 insect cells (baculovirus)
Briefly: JAK3 inhibition (Table 4). The settings on record: read-out: JAK3 Ki.

The target in another assay is T2, JAK1 (Homo sapiens, UniProt P23458).
T2 construct: made in house; host or cells: SF9 insect cells (baculovirus)
T2 sequence (P23458 852-1154): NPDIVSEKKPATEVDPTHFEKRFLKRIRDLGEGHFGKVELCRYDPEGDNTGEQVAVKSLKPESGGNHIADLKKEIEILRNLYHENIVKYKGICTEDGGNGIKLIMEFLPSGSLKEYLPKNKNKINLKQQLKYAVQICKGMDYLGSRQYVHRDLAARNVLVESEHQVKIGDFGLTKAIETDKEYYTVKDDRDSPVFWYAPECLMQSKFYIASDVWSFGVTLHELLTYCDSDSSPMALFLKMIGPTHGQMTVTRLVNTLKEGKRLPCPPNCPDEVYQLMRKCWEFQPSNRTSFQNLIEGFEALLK
The assay can be described thus: JAK1 inhibition (Table 4). The settings on record: read-out: JAK1 Ki.

In another assay the target is T3, JAK2 (Homo sapiens, UniProt O60674).
T3 construct: made in house; host or cells: SF9 insect cells (baculovirus)
T3 sequence (O60674 812-1132): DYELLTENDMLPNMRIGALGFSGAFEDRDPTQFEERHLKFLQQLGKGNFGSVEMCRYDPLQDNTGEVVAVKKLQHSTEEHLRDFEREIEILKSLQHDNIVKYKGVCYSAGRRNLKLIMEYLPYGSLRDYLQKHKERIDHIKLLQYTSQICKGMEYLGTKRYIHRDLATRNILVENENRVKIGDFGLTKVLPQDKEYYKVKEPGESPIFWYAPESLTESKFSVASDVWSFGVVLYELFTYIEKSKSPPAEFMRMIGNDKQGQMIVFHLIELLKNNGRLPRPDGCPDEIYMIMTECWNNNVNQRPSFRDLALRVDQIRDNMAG
Briefly: JAK2 inhibition (Table 4). To be noted: read-out: JAK2 Ki.

A further assay has as its target T4, TYK2 (Homo sapiens, UniProt P29597).
T4 construct: made in house; host or cells: SF9 insect cells (baculovirus)
T4 sequence (P29597 873-1187): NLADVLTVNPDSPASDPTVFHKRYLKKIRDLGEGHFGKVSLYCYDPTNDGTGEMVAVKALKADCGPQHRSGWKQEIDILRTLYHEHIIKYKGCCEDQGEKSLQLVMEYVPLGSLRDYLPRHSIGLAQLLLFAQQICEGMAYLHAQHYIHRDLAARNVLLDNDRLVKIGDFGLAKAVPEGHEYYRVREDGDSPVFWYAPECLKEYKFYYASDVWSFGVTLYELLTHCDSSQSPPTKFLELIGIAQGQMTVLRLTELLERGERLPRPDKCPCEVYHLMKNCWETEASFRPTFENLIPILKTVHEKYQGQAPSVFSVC
Briefly: TYK2 inhibition (Table 4).

T1 sequence (P52333 783-1124): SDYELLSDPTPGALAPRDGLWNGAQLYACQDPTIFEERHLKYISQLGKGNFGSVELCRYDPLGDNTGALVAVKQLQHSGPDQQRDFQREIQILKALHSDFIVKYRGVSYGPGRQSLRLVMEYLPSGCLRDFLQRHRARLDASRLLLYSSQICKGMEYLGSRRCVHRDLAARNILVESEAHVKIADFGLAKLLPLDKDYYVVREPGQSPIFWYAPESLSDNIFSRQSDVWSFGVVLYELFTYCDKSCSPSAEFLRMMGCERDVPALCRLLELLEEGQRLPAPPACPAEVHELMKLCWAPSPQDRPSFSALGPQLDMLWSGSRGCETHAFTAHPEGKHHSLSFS

For the compound `CNC(=O)Cc1nc2cnc3[nH]ccc3c2n1C1CCN(Cc2ccccc2)CC1` [Example 21, 2-[1-(1-Benzyl-piperidin-4-yl)-1,6-dihydro-1,2,3,5,6-tetraaza-as-indacen-2-yl]-N-methyl acetamide], the Ki – broadly, a measure of affinity in units of concentration, obtained from inhibition or displacement – amounted to 37.6 nM at JAK3, 9.93 nM at JAK1, 38.5 nM on JAK2 and 627 nM at TYK2.
For `OCc1nc2cnc3[nH]ccc3c2n1C1CCN(Cc2ccccc2)CC1` [Example 22, [1-(1-Benzyl-piperidin-4-yl)-1,6-dihydro-1,2,3,5,6-tetraaza-as-indacen-2-yl]methanol], in that order: 10.8 nM, 1.73 nM, 6.44 nM and 69.9 nM.
`O=C(Cc1nc2cnc3[nH]ccc3c2n1C1CCN(Cc2ccccc2)CC1)N1CCOCC1` [Example 23, 2-[1-(1-Benzyl-piperidin-4-yl)-1,6-dihydro-1,2,3,5,6-tetraaza-as-indacen-2-yl]-1-morpholin-4-yl-ethanone]: the Ki at JAK3 stood at 9.98 nM; on JAK1, 6.22 nM; on JAK2, 62.7 nM; on TYK2, 616 nM.
For `O=C1CCCN1Cc1nc2cnc3[nH]ccc3c2n1C1CCN(Cc2ccccc2)CC1` [Example 24, 1-[1-(1-Benzyl-piperidin-4-yl)-1,6-dihydro-1,2,3,5,6-tetraaza-as-indacen-2-ylmethyl]-pyrrolidin-2-one], in that order: 29.2 nM, 10.4 nM, 68.6 nM and 735 nM.
The matching figures for `CC(=O)N1CCC[C@@H](n2cnc3cnc4[nH]ccc4c32)C1` [Example 30, 1-[(R)-3-(6H-1,3,5,6-Tetraaza-as-indacen-1-yl)-piperidin-1-yl]ethanone]: 139 nM, 29.2 nM, 42.2 nM and 141 nM.
For `O=C(c1cccnc1)N1CCC[C@@H](n2cnc3cnc4[nH]ccc4c32)C1` [Example 31, Pyridin-3-yl-[(R)-3-(6H-1,3,5,6-tetraaza-as-indacen-1-yl)-piperidin-1-yl]methanone], in that order: 419 nM, 13.2 nM, 25.9 nM and 159 nM.
Consider `CN(C)CC(=O)N1CCC[C@@H](n2cnc3cnc4[nH]ccc4c32)C1` [Example 32, 2-Dimethylamino-1-[(R)-3-(6H-1,3,5,6-tetraaza-as-indacen-1-yl)-piperidin-1-yl]ethanone], for which the Ki came to 1820 nM at JAK3, 181 nM on JAK1, 568 nM at JAK2 and 3180 nM at TYK2.
For `O=C(c1cccnc1)N1CCC(n2cnc3cnc4[nH]ccc4c32)CC1` [Example 34, Pyridin-3-yl-[4-(6H-1,3,5,6-tetraaza-as-indacen-1-yl)-piperidin-1-yl]methanone], in that order: 1070 nM, 31.5 nM, 63.1 nM and 423 nM.
The matching figures for `N#CCC(=O)N1CC[C@@H](n2cnc3cnc4[nH]ccc4c32)C1` [Example 37, 3-Oxo-3-[(R)-3-(6H-1,3,5,6-tetraaza-as-indacen-1-yl)-pyrrolidin-1-yl]propionitrile]: 144 nM, 11.3 nM, 44.2 nM and 198 nM.
For the compound `N#CCC(=O)N1CC(n2cnc3cnc4[nH]ccc4c32)C1` [Example 38, 3-Oxo-3-[3-(6H-1,3,5,6-tetraaza-as-indacen-1-yl)-azetidin-1-yl]propionitrile], the inhibition constant (Ki) worked out at 713 nM on JAK3, 412 nM on JAK1, 315 nM on JAK2 and 1970 nM on TYK2.
The matching figures for `c1cncc(CN2CCC[C@@H](n3cnc4cnc5[nH]ccc5c43)C2)c1` [Example 39, 1-((R)-1-Pyridin-3-ylmethyl-piperidin-3-yl)-1,6-dihydro-1,3,5,6-tetraaza-as-indacene]: 182 nM, 35.9 nM, 102 nM and 330 nM.
Take `N#Cc1ccc(CN2CCC[C@@H](n3cnc4cnc5[nH]ccc5c43)C2)cc1` [Example 40, 4-[(R)-3-(6H-1,3,5,6-Tetraaza-as-indacen-1-yl)-piperidin-1-ylmethyl]benzonitrile]: the inhibitory constant (Ki) on JAK3 is 66.9 nM; on JAK1 it was 6.35 nM; on JAK2 it was 17.8 nM; on TYK2, 107 nM.
In the case of `N#Cc1ccccc1CN1CCC[C@@H](n2cnc3cnc4[nH]ccc4c32)C1` [Example 41, 2-[(R)-3-(6H-1,3,5,6-Tetraaza-as-indacen-1-yl)-piperidin-1-ylmethyl]benzonitrile], the inhibitory constant (Ki) on JAK3 worked out at 153 nM; on JAK1, 34.4 nM; at JAK2, 48.9 nM; on TYK2, 159 nM.
For `c1ncc(CN2CCC[C@@H](n3cnc4cnc5[nH]ccc5c43)C2)cn1` [Example 42, 1-((R)-1-Pyrimidin-5-ylmethyl-piperidin-3-yl)-1,6-dihydro-1,3,5,6-tetraaza-as-indacene], the Ki at JAK3 is 93 nM; at JAK1 it was 14.9 nM; on JAK2, 41 nM; on TYK2, 122 nM.
For `c1coc(CN2CCC[C@@H](n3cnc4cnc5[nH]ccc5c43)C2)n1` [Example 43, 1-((R)-1-Oxazol-2-ylmethyl-piperidin-3-yl)-1,6-dihydro-1,3,5,6-tetraaza-as-indacene], the inhibitory constant (Ki) is 177 nM on JAK3, 43.1 nM on JAK1, 72.9 nM at JAK2 and 204 nM at TYK2.
The matching figures for `Cn1ccnc1CN1CCC[C@@H](n2cnc3cnc4[nH]ccc4c32)C1` [Example 44, 1-[(R)-1-(1-Methyl-1H-imidazol-2-ylmethyl)-piperidin-3-yl]-1,6-dihdyro-1,3,5,6-tetraaza-as-indacene]: 241 nM, 105 nM, 121 nM and 423 nM.
`N#Cc1cccc(CN2CCC[C@@H](n3cnc4cnc5[nH]ccc5c43)C2)c1` [Example 45, 3-[(R)-3-(6H-1,3,5,6-Tetraaza-as-indacen-1-yl)-piperidin-1-ylmethyl]benzonitrile]: the Ki at JAK3 came out at 27.5 nM; at JAK1, 7.58 nM; at JAK2, 18 nM; on TYK2, 129 nM.
The matching figures for `COc1ccc(CN2CCC[C@@H](n3cnc4cnc5[nH]ccc5c43)C2)cc1` [Example 46, 1-[(R)-1-(4-Methoxy-benzyl)-piperidin-3-yl]-1,6-dihydro-1,3,5,6-tetraaza-as-indacene]: 414 nM, 72.4 nM, 160 nM and 913 nM.
Turning to `Fc1cccc(CN2CCC[C@@H](n3cnc4cnc5[nH]ccc5c43)C2)c1` [Example 47, 1-[(R)-1-(3-Fluoro-benzyl)-piperidin-3-yl]-1,6-dihydro-1,3,5,6-tetraaza-as-indacene], the inhibitory constant (Ki) at JAK3 amounted to 52.2 nM; at JAK1, 13.1 nM; at JAK2, 28.9 nM; at TYK2, 101 nM.
For `N#Cc1ccc(CN2CCC(n3cnc4cnc5[nH]ccc5c43)CC2)cc1` [Example 48, 4-[4-(6H-1,3,5,6-Tetraaza-as-indacen-1-yl)-piperidin-1-ylmethyl]benzonitrile], the inhibitory constant (Ki) at JAK3 worked out at 8.57 nM; at JAK1 it was 1.3 nM; at JAK2, 2.67 nM; at TYK2, 30.9 nM.
